Reference: patent publication US20250051347A1, “BIFUNCTIONAL CHIMERIC HETEROCYCLIC COMPOUND AND USE THEREOF AS ANDROGEN RECEPTOR DEGRADER” (Hinova Pharmaceuticals, Inc., priority 2021, published 2025)

Each compound was assayed against T1, androgen receptor (AR) splicing variant AR-v7 (Homo sapiens, UniProt P10275) (assay: Degradation activity on androgen receptor splicing variant AR-v7 in 22RV1 cells (ELISA)). Details: AR-v7 degradation in 22RV1 cells, 48 h, class symbols.
T1 construct: The degradation activity of compounds on AR-v7 in 22RV1 cells; host or cells: 22RV1 cells
T1 sequence (P10275 1-644 isoform P10275-3): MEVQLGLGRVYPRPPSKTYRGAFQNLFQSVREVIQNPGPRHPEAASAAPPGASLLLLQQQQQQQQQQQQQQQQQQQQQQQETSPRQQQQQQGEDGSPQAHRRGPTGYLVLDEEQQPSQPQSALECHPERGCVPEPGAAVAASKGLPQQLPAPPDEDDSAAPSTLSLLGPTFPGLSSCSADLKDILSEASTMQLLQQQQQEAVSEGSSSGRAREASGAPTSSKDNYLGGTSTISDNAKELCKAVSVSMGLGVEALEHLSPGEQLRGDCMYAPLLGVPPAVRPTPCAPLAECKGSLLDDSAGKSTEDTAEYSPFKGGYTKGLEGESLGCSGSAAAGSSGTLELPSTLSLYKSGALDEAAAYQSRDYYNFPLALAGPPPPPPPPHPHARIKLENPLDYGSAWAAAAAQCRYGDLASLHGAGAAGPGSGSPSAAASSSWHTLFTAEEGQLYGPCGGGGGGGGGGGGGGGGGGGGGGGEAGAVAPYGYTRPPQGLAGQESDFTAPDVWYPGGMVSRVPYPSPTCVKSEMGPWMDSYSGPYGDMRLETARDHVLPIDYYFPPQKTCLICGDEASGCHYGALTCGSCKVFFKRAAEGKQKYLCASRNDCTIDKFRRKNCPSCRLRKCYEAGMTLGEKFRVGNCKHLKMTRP
Assay type: cell-based

Row | SMILES | DC50 [nM]
1 | CN(C(=O)c1ccc(C(C)(C)c2ccc(OCc3ccnc(N4CC5(COC5)C4)n3)cc2)cc1)C1CN(c2ccc3c(c2)C(=O)N(C2CCC(=O)NC2=O)C3=O)C1 (stereo not drawn) [Example 508, 4-(2-(4-((2-(2-oxa-6-azaspiro[3.3]heptan-6-yl)pyrimidin-4-yl)methoxy)phenyl)propan-2-yl)-N-(1-(2-(2,6-dioxopiperidin-3-yl)-1,3-dioxoisoindolin-5-yl)azetidin-3-yl)-N-methylbenzamide] | 101 to 1000
2 | CC(C)(c1ccc(Oc2cnc(C(=O)C3CCC3)nc2)cc1)c1ccc(O[C@H]2C[C@H](Nc3ccc4c(c3)C(=O)N(C3CCC(=O)NC3=O)C4=O)C2)cc1 (stereo partly drawn) [Example 262] | 11 to 100
3 | CC(C)(c1ccc(OCCCCCCCOCCCOCCCNc2cccc3c2C(=O)N(C2CCC(=O)NC2=O)C3=O)cc1)c1ccc(OCc2ccnc(NS(C)(=O)=O)n2)cc1 (stereo not drawn) [Example 23] | 1000 to 5000
4 | Cc1nc(-c2ccc(Oc3ccc(C(C)(C)c4ccc(O[C@H]5C[C@@H](Nc6ccc7c(c6)C(=O)N(C6CCC(=O)NC6=O)C7=O)C5)cc4)cc3)nn2)no1 (stereo partly drawn) [Example 337] | 11 to 100
5 | CC(C)(c1ccc(OCc2ccnc(N3CC4(COC4)C3)n2)cc1)c1ccc(OC[C@H]2CCCN2Cc2ccc3c(c2)C(=O)N(C2CCC(=O)NC2=O)C3=O)cc1 (stereo partly drawn) [Example 565] | 1000 to 5000
6 | CC(C)(c1ccc(OCc2ccnc(NS(C)(=O)=O)n2)cc1)c1ccc(OC2CN(c3cccc4c3C(=O)N(C3CCC(=O)NC3=O)C4=O)C2)cc1 (stereo not drawn) [Example 47, N-(4-((4-(2-(4-((1-(2-(2,6-dioxopiperidin-3-yl)-1,3-dioxoisoindolin-4-yl)azetidin-3-yl)oxy)phenyl)propan-2-yl)phenoxy)methyl)pyrimidin-2-yl)methanesulfonamide] | 101 to 1000
7 | CC(O)c1ncc(Oc2ccc(C(C)(C)c3ccc(OC[C@@H]4CCN4c4ccc5c(c4)C(=O)N(C4CCC(=O)NC4=O)C5=O)cc3)cc2)cn1 (stereo partly drawn) [Example 340] | 11 to 100

Same assay, conditions: AR-v7 degradation in 22RV1 cells, 48 h, numeric values

Row | SMILES | DC50 [nM]
8 | CC(=O)c1nccc(COc2ccc(C(C)(C)c3ccc(OCC4CCN(c5ccc6c(c5)C(=O)N(C5CCC(=O)NC5=O)C6=O)C4)cc3)cc2)n1 (stereo not drawn) [Example 302, 5-(3-((4-(2-(4-((2-acetylpyrimidin-4-yl)methoxy)phenyl)propan-2-yl)phenoxy)methyl)pyrrolidin-1-yl)-2-(2,6-dioxopiperidin-3-yl)isoindolin-1,3-dione] | ≥ 10000
9 | CC(=O)c1nccc(COc2ccc(C(C)(C)c3ccc(OCCCCCNc4ccc5c(c4)C(=O)N(C4CCC(=O)NC4=O)C5=O)cc3)cc2)n1 (stereo not drawn) [Example 342, 5-((5-(4-(2-(4-((2-acetylpyrimidin-4-yl)methoxy)phenyl)isopropan-2-yl)phenoxy)pentyl)amino)-2-(2,6-dioxopiperidin-3-yl)isoindolin-1,3-dione] | > 10000
10 | CC(C)(c1ccc(OCc2ccnc(NS(C)(=O)=O)n2)cc1)c1ccc(OC2CCN(CCCCOCCCCNc3ccc4c(c3)C(=O)N(C3CCC(=O)NC3=O)C4=O)CC2)cc1 (stereo not drawn) [Example 36, N-(4-((4-(2-(4-((1-(4-(4-(4-)((2-(2,6-dioxopiperidin-3-yl)-1,3-dioxoisoindolin-5-yl)amino)butoxy)butyl)piperidin-4-yl)oxy)phenyl)propan-2-yl)phenoxy)methyl)pyrimidin-2-yl)methanesulfonamide] | > 10000
11 | CC(C)(c1ccc(OCCCCCCCCOCCCCNc2ccc3c(c2)C(=O)N(C2CCC(=O)NC2=O)C3=O)cc1)c1ccc(OCc2ccnc(N3CCCS3(=O)=O)n2)cc1 (stereo not drawn) [Example 27, 5-((4-((8-(4-(2-(4-((2-(1,1-dioxoisothiazolidin-2-yl)pyrimidin-4-yl)methoxy)phenyl)propan-2-yl)phenoxy)octyl)oxy)butyl)amino)-2-(2,6-dioxopiperidin-3-yl)isoindolin-1,3-dione] | 7580
12 | CC(C)(c1ccc(OCCCCCCCCOCCCCNc2ccc3c(c2)C(=O)N(C2CCC(=O)NC2=O)C3=O)cc1)c1ccc(OCc2nccc(NS(C)(=O)=O)n2)cc1 (stereo not drawn) [Example 32, N-(2-((4-(2-(4-((8-(4-((2-(2,6-dioxopiperidin-3-yl)-1,3-dioxoisoindolin-5-yl)amino)butoxy)octyl)oxy)phenyl)propan-2-yl)phenoxy)methyl)pyrimidin-4-yl)methanesulfonamide] | > 10000
